In brackets after ≈: the same amount, converted by molar mass.
Legend:
Format in all cases: functional
Streptococcus pyogenes = experiment: Antimicrobial activity against Streptococcus pyogenes MTCC 443 by broth microdilution method
Aspergillus niger = experiment: Antimicrobial activity against Aspergillus niger MTCC 282
[1] = test system: Mycobacterium tuberculosis; experiment: Antimicrobial activity against Mycobacterium tuberculosis H37Rv; conditions: for MIC: Mycobacterium tuberculosis, H37Rv
Pseudomonas aeruginosa = experiment: Antimicrobial activity against Pseudomonas aeruginosa MTCC 2488 by broth microdilution method
Escherichia coli = experiment: Antimicrobial activity against Escherichia coli MTCC 442 by broth microdilution method
Staphylococcus aureus = experiment: Antimicrobial activity against Staphylococcus aureus MTCC 96 by broth microdilution method
Aspergillus clavatus = experiment: Antimicrobial activity against Aspergillus clavatus MTCC 1323
Candida albicans = experiment: Antimicrobial activity against Candida albicans MTCC 227

Compound	MIC (Streptococcus pyogenes)	MIC (Aspergillus niger)	inhibition (INH) [1]	MIC [1]	MIC (Pseudomonas aeruginosa)	MIC (Escherichia coli)	MIC (Staphylococcus aureus)	MIC (Aspergillus clavatus)	MIC (Candida albicans)
COc1ccc(-c2cc(N3CCCC3)n(-c3cccc(Cl)c3)c(=O)c2/N=N/c2ccc(Cl)cc2[N+](=O)[O-])cc1	250 µg/mL (≈ 443 µM)	200 µg/mL (≈ 354 µM)	98%	1000 µg/mL (≈ 1770 µM)	500 µg/mL (≈ 886 µM)	250 µg/mL (≈ 443 µM)	250 µg/mL (≈ 443 µM)	200 µg/mL (≈ 354 µM)	500 µg/mL (≈ 886 µM)
COc1ccc(-c2cc(N3CCCC3)n(-c3cccc(Cl)c3)c(=O)c2/N=N/c2ccc([N+](=O)[O-])cc2Cl)cc1	200 µg/mL (≈ 354 µM)	500 µg/mL (≈ 886 µM)	–	–	250 µg/mL (≈ 443 µM)	250 µg/mL (≈ 443 µM)	200 µg/mL (≈ 354 µM)	500 µg/mL (≈ 886 µM)	250 µg/mL (≈ 443 µM)
COc1ccc(-c2cc(N3CCCC3)n(-c3cccc(Cl)c3)c(=O)c2/N=N/c2cc(Cl)ccc2Cl)cc1	500 µg/mL (≈ 903 µM)	> 1000 µg/mL	–	–	500 µg/mL (≈ 903 µM)	250 µg/mL (≈ 451 µM)	500 µg/mL (≈ 903 µM)	> 1000 µg/mL	1000 µg/mL (≈ 1810 µM)
COc1ccc(-c2cc(N3CCCC3)n(-c3cccc(Cl)c3)c(=O)c2/N=N/c2ccc([N+](=O)[O-])cc2)cc1	250 µg/mL (≈ 472 µM)	> 1000 µg/mL	–	–	250 µg/mL (≈ 472 µM)	250 µg/mL (≈ 472 µM)	250 µg/mL (≈ 472 µM)	> 1000 µg/mL	250 µg/mL (≈ 472 µM)
COc1ccc(-c2cc(N3CCCC3)n(-c3cccc(Cl)c3)c(=O)c2/N=N/c2cccc([N+](=O)[O-])c2)cc1	250 µg/mL (≈ 472 µM)	500 µg/mL (≈ 943 µM)	–	–	200 µg/mL (≈ 377 µM)	200 µg/mL (≈ 377 µM)	250 µg/mL (≈ 472 µM)	500 µg/mL (≈ 943 µM)	500 µg/mL (≈ 943 µM)
COc1ccc(-c2cc(N3CCCC3)n(-c3cccc(Cl)c3)c(=O)c2/N=N/c2ccccc2[N+](=O)[O-])cc1	100 µg/mL (≈ 189 µM)	500 µg/mL (≈ 943 µM)	–	–	200 µg/mL (≈ 377 µM)	100 µg/mL (≈ 189 µM)	100 µg/mL (≈ 189 µM)	500 µg/mL (≈ 943 µM)	500 µg/mL (≈ 943 µM)
COc1ccc(-c2cc(N3CCCC3)n(-c3cccc(Cl)c3)c(=O)c2/N=N/c2ccc(C)cc2)cc1	200 µg/mL (≈ 401 µM)	250 µg/mL (≈ 501 µM)	–	–	200 µg/mL (≈ 401 µM)	200 µg/mL (≈ 401 µM)	200 µg/mL (≈ 401 µM)	250 µg/mL (≈ 501 µM)	250 µg/mL (≈ 501 µM)
COc1ccc(-c2cc(N3CCCC3)n(-c3cccc(Cl)c3)c(=O)c2/N=N/c2cccc(C)c2)cc1	200 µg/mL (≈ 401 µM)	500 µg/mL (≈ 1000 µM)	–	–	250 µg/mL (≈ 501 µM)	250 µg/mL (≈ 501 µM)	150 µg/mL (≈ 301 µM)	500 µg/mL (≈ 1000 µM)	500 µg/mL (≈ 1000 µM)
COc1ccc(-c2cc(N3CCCC3)n(-c3cccc(Cl)c3)c(=O)c2/N=N/c2ccccc2C)cc1	500 µg/mL (≈ 1000 µM)	1000 µg/mL (≈ 2000 µM)	–	–	500 µg/mL (≈ 1000 µM)	200 µg/mL (≈ 401 µM)	500 µg/mL (≈ 1000 µM)	1000 µg/mL (≈ 2000 µM)	1000 µg/mL (≈ 2000 µM)
COc1ccc(-c2cc(N3CCCC3)n(-c3cccc(Cl)c3)c(=O)c2/N=N/c2ccc(Cl)cc2)cc1	500 µg/mL (≈ 963 µM)	1000 µg/mL (≈ 1930 µM)	–	–	500 µg/mL (≈ 963 µM)	500 µg/mL (≈ 963 µM)	500 µg/mL (≈ 963 µM)	1000 µg/mL (≈ 1930 µM)	1000 µg/mL (≈ 1930 µM)
COc1ccc(-c2cc(N3CCCC3)n(-c3cccc(Cl)c3)c(=O)c2/N=N/c2cccc(Cl)c2)cc1	100 µg/mL (≈ 193 µM)	500 µg/mL (≈ 963 µM)	–	–	500 µg/mL (≈ 963 µM)	500 µg/mL (≈ 963 µM)	100 µg/mL (≈ 193 µM)	500 µg/mL (≈ 963 µM)	250 µg/mL (≈ 481 µM)
COc1ccc(-c2cc(N3CCCC3)n(-c3cccc(Cl)c3)c(=O)c2/N=N/c2ccccc2Cl)cc1	250 µg/mL (≈ 481 µM)	250 µg/mL (≈ 481 µM)	–	–	100 µg/mL (≈ 193 µM)	100 µg/mL (≈ 193 µM)	250 µg/mL (≈ 481 µM)	250 µg/mL (≈ 481 µM)	500 µg/mL (≈ 963 µM)
COc1ccc(-c2cc(N3CCCC3)n(-c3cccc(Cl)c3)c(=O)c2/N=N/c2ccccc2)cc1	250 µg/mL (≈ 515 µM)	500 µg/mL (≈ 1030 µM)	–	–	100 µg/mL (≈ 206 µM)	62.5 µg/mL (≈ 129 µM)	200 µg/mL (≈ 412 µM)	500 µg/mL (≈ 1030 µM)	200 µg/mL (≈ 412 µM)
COc1ccc(-c2cc(Cl)n(-c3cccc(Cl)c3)c(=O)c2)cc1	200 µg/mL (≈ 578 µM)	500 µg/mL (≈ 1440 µM)	–	–	100 µg/mL (≈ 289 µM)	100 µg/mL (≈ 289 µM)	200 µg/mL (≈ 578 µM)	500 µg/mL (≈ 1440 µM)	500 µg/mL (≈ 1440 µM)
CC1(C)S[C@@H]2[C@H](NC(=O)[C@H](N)c3ccccc3)C(=O)N2[C@H]1C(=O)O [AMPICILLIN]	100 µg/mL (≈ 286 µM)	–	–	–	100 µg/mL (≈ 286 µM)	100 µg/mL (≈ 286 µM)	250 µg/mL (≈ 715 µM)	–	–
O=C(O)c1cn(C2CC2)c2cc(N3CCNCC3)c(F)cc2c1=O [CIPROFLOXACIN]	50 µg/mL (≈ 151 µM)	–	–	–	–	25 µg/mL (≈ 75.4 µM)	50 µg/mL (≈ 151 µM)	–	–
COC1=CC(=O)C[C@@H](C)[C@]12Oc1c(Cl)c(OC)cc(OC)c1C2=O [GRISEOFULVIN]	–	100 µg/mL (≈ 283 µM)	–	–	–	–	–	100 µg/mL (≈ 283 µM)	500 µg/mL (≈ 1420 µM)
CO[C@H]1/C=C/O[C@@]2(C)Oc3c(C)c(O)c4c(O)c(c(/C=N/N5CCN(C)CC5)c(O)c4c3C2=O)NC(=O)/C(C)=C\C=C\[C@H](C)[C@H](O)[C@@H](C)[C@@H](O)[C@@H](C)[C@H](OC(C)=O)[C@@H]1C [RIFAMPIN]	–	–	98%	40 µg/mL (≈ 48.6 µM)	–	–	–	–	–
